In patent US20230321086A1, “METHODS AND MATERIALS FOR INHIBITING NICOTINAMIDE PHOSPHORIBOSYLTRANSFERASE ACTIVITY” (Universiy of Pittsburgh - Of the Commonwealth System of …, priority 2020, published 2023):

Assays:
A431 cells = test: Assay for total NADH and NAD+ measurements in cells; assay type: cell-based; settings: Homo sapiens, A-431, read-out: B: Cellular NAD inhibitory activity, IC50
Summary of the method: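 Cells (2,000/well) treated with compounds overnight, washed with PBS containing 1 mM CaCl2 and MgCl2, lysed with 0.4% DTAB in phosphate buffer pH 8.0. Reaction mix added and fluorescence (Ex/Em 530/585) followed over 8 cycles every 92 seconds; NAD given as % of untreated control.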

NAMPT = NAMPT (Homo sapiens, UniProt P43490); test: Assay for in vitro NAMPT activity via NMN assessment; assay type: biochemical; settings: read-out: A: NAMPT enzyme inhibitory activity, IC50
Protocol: The following were added to a well: 20 μL 2× test compound in Basic Buffer (0.02% BSA, 2 mM DTT, 12 mM MgCl2, 50 mM Tris pH7.5); 10 μL 8 μg/mL NAMPT, and 200 μM PRPP working solution (or PRPP working solution to background wells). 10 μL 100 μM NAM working solution was added to start the reaction. The plate was sealed and incubated for 45 minutes at 37° C. After incubation, 10 μL 20% acetophenone in DMSO, 10 μL 2N KOH, and 20 μL 88% formic acid were added. The plate was sealed and incubated for 30 minutes at 37° C. After incubation, fluorescence at Ex/Em 387/441 was read.
In each table header, A: NAMPT enzyme inhibitory activity, IC50 (μM); B: Cellular NAD inhibitory activity, IC50 (μM); and C: change in NAD levels in response to test compound, shown as % of NAD activity in the absence of test compound. […] A percentage of 100 percent would indicate no increase or decrease in NAD levels as compared to that measured for untreated control cells, while a percentage of 50 percent would indicate a decrease in NAD levels of 50 percent as compared to that measured for untreated control cells.

Chain of NAMPT (P43490 whole entry, species assumed): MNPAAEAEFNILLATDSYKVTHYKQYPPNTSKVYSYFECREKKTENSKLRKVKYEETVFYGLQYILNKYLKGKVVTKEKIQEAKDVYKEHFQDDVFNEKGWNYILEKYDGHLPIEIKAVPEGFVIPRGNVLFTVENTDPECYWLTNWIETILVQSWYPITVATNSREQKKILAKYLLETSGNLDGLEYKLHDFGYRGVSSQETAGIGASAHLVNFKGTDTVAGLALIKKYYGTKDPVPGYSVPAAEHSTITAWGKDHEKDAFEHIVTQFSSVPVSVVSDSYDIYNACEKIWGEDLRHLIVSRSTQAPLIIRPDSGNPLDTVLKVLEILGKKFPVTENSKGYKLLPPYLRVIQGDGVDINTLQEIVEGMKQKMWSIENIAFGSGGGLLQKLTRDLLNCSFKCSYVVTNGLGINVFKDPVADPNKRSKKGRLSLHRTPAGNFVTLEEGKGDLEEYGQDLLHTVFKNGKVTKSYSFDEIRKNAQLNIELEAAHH

O=C(NCc1cccnc1)c1ccc2nc(-c3ccccc3)c(-c3ccccc3)nc2c1 [BC18405]
IC50 (A431 cells): < 1000 nM | IC50 (NAMPT): < 1000 nM

O=C(NCCc1cccnc1)c1cnc2nc(-c3ccc(F)cc3)c(-c3ccc(F)cc3)nc2c1 [BC20205]
IC50 (A431 cells): < 1000 nM | IC50 (NAMPT): < 1000 nM

O=C(NCc1cccnc1)Nc1cnc2nc(-c3ccc(F)cc3)c(-c3ccc(F)cc3)nc2c1 [BC20213]
IC50 (A431 cells): < 1000 nM | IC50 (NAMPT): < 1000 nM

O=C(NCCc1cccnc1)Nc1ccc2nc(-c3ccc(F)cc3)c(-c3ccc(F)cc3)nc2c1 [BC20216]
IC50 (A431 cells): < 1000 nM | IC50 (NAMPT): < 1000 nM

O=C(Nc1cccnc1)Nc1ccc2nc(-c3ccc(F)cc3)c(-c3ccc(F)cc3)nc2c1 [BC20224]
IC50 (A431 cells): < 1000 nM | IC50 (NAMPT): < 1000 nM

O=C(NCc1ccc2nc(-c3ccc(F)cc3)c(-c3ccc(F)cc3)nc2c1)Nc1cccnc1 [BC20235]
IC50 (A431 cells): < 1000 nM | IC50 (NAMPT): < 1000 nM

O=C(Nc1cccnc1)Nc1cnc2nc(-c3ccc(F)cc3)c(-c3ccc(F)cc3)nc2c1 [BC20254]
IC50 (A431 cells): < 1000 nM | IC50 (NAMPT): < 1000 nM

O=C(NCCc1cccnc1)Nc1cnc2nc(-c3ccc(F)cc3)c(-c3ccc(F)cc3)nc2c1 [BC20268]
IC50 (A431 cells): < 1000 nM | IC50 (NAMPT): < 1000 nM

Fc1ccc(-c2nc3cc(NC(=S)NCCc4cccnc4)cnc3nc2-c2ccc(F)cc2)cc1 [BC20309]
IC50 (A431 cells): < 1000 nM | IC50 (NAMPT): < 1000 nM

O=C(NCCc1cccnc1)Nc1cnc2nc(-c3ccc(Cl)cc3)c(-c3ccc(Cl)cc3)nc2c1 [BC20311]
IC50 (A431 cells): < 1000 nM | IC50 (NAMPT): < 1000 nM

O=C(NCCc1cccnn1)Nc1cnc2nc(-c3ccc(F)cc3)c(-c3ccc(F)cc3)nc2c1 [BC20314]
IC50 (A431 cells): < 1000 nM | IC50 (NAMPT): < 1000 nM

O=C(NCCc1cncs1)Nc1cnc2nc(-c3ccc(F)cc3)c(-c3ccc(F)cc3)nc2c1 [BC20315]
IC50 (A431 cells): < 1000 nM | IC50 (NAMPT): < 1000 nM

Nc1ccc(CNC(=O)Nc2cnc3nc(-c4ccc(F)cc4)c(-c4ccc(F)cc4)nc3c2)cn1 [BC20316]
IC50 (A431 cells): < 1000 nM | IC50 (NAMPT): < 1000 nM

O=C(Nc1cnc2nc(-c3ccc(F)cc3)c(-c3ccc(F)cc3)nc2c1)N1Cc2ccccc2C1 [BC20317]
IC50 (A431 cells): < 1000 nM | IC50 (NAMPT): < 1000 nM

O=C(NCCc1cn[nH]c1)Nc1cnc2nc(-c3ccc(F)cc3)c(-c3ccc(F)cc3)nc2c1 [BC20318]
IC50 (A431 cells): < 1000 nM | IC50 (NAMPT): < 1000 nM

O=C(NCCc1c[nH]cn1)Nc1cnc2nc(-c3ccc(F)cc3)c(-c3ccc(F)cc3)nc2c1 [BC20319]
IC50 (A431 cells): < 1000 nM | IC50 (NAMPT): < 1000 nM

Nc1ccc(CCNC(=O)Nc2cnc3nc(-c4ccc(F)cc4)c(-c4ccc(F)cc4)nc3c2)cn1 [BC20320]
IC50 (A431 cells): < 1000 nM | IC50 (NAMPT): < 1000 nM

O=C(Nc1cnc2nc(-c3ccc(F)cc3)c(-c3ccc(F)cc3)nc2c1)N1Cc2cccnc2C1 [BC20321]
IC50 (A431 cells): < 1000 nM | IC50 (NAMPT): < 1000 nM

Fc1ccc(-c2nc3ccc(NC(=S)N4Cc5ccccc5C4)cc3nc2-c2ccc(F)cc2)cc1 [BC20322]
IC50 (A431 cells): < 1000 nM | IC50 (NAMPT): < 1000 nM

Nc1ccc(CNC(=S)Nc2ccc3nc(-c4ccc(F)cc4)c(-c4ccc(F)cc4)nc3c2)cn1 [BC20323]
IC50 (A431 cells): < 1000 nM | IC50 (NAMPT): < 1000 nM

Nc1ccc(CNC(=S)Nc2cnc3nc(-c4ccc(F)cc4)c(-c4ccc(F)cc4)nc3c2)cn1 [BC20324]
IC50 (A431 cells): < 1000 nM | IC50 (NAMPT): < 1000 nM

O=C(NCc1cnc2nc(-c3ccc(F)cc3)c(-c3ccc(F)cc3)nc2c1)Nc1cccnc1 [BC20325]
IC50 (A431 cells): < 1000 nM | IC50 (NAMPT): < 1000 nM

O=C(NCc1cccnc1)NCc1cnc2nc(-c3ccc(F)cc3)c(-c3ccc(F)cc3)nc2c1 [BC20326]
IC50 (A431 cells): 1000 to 25000 nM | IC50 (NAMPT): 1000 to 25000 nM

O=C(NCc1cnc2nc(-c3ccc(F)cc3)c(-c3ccc(F)cc3)nc2c1)N1Cc2ccncc2C1 [BC20327]
IC50 (A431 cells): < 1000 nM | IC50 (NAMPT): < 1000 nM

O=C(NCc1cnc2nc(-c3ccc(F)cc3)c(-c3ccc(F)cc3)nc2c1)c1cc2ccncc2o1 [BC20328]
IC50 (A431 cells): < 1000 nM | IC50 (NAMPT): < 1000 nM

O=C(NCc1cnc2nc(-c3ccc(F)cc3)c(-c3ccc(F)cc3)nc2c1)c1cc2ccccc2s1 [BC20329]
IC50 (A431 cells): 1000 to 25000 nM | IC50 (NAMPT): ≥ 25000 nM

O=C(Nc1ccc2nc(-c3ccc(F)cc3)c(-c3ccc(F)cc3)nc2c1)N1Cc2ccccc2C1 [BC20330]
IC50 (A431 cells): < 1000 nM | IC50 (NAMPT): < 1000 nM

Nc1ccc(CNC(=O)Nc2ccc3nc(-c4ccc(F)cc4)c(-c4ccc(F)cc4)nc3c2)cn1 [BC20331]
IC50 (A431 cells): < 1000 nM | IC50 (NAMPT): < 1000 nM

O=C(NCc1cnc2nc(-c3ccc(F)cc3)c(-c3ccc(F)cc3)nc2c1)N1Cc2cccnc2C1 [BC20332]
IC50 (A431 cells): < 1000 nM | IC50 (NAMPT): < 1000 nM

O=C(Nc1ccc2nc(-c3ccc(F)cc3)c(-c3ccc(F)cc3)nc2c1)N1Cc2cccnc2C1 [BC20333]
IC50 (A431 cells): < 1000 nM | IC50 (NAMPT): < 1000 nM

O=C(Nc1cnc2nc(-c3ccc(F)cc3)c(-c3ccc(F)cc3)nc2c1)N1Cc2ccncc2C1 [BC20334]
IC50 (A431 cells): < 1000 nM | IC50 (NAMPT): < 1000 nM
